Data set [1] deals with T1, TspO (tryptophan-rich sensory protein) (Cereibacter sphaeroides, UniProt Q9RFC8).
T1 construct: C-terminal His6 tag, expressed in E. coli BL21(DE3), purified in DDM
T1 sequence (Q9RFC8 1-158): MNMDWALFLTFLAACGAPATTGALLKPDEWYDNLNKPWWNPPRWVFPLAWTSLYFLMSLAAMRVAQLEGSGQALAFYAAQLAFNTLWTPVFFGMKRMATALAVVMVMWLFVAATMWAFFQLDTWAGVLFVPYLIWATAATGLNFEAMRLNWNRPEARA
Briefly: intrinsic tryptophan fluorescence quenching titration, purified protein in DDM. Format: binding.

The data set “native gel or EMSA” concerns the molecule itself. Briefly: native gel or EMSA. (In EMSA bound probe runs differently from free probe, usually more slowly.)

Read-outs that look alike come from different tables or passages of the source.

For orientation: Kd means a measure of binding affinity in units of concentration. The molecule `C=CC1=C(C)C2=Cc3c(C=C)c(C)c4[n]3[Fe]([Cl])[n]3c(c(C)c(CCC(=O)O)c3=CC3=NC(=C4)C(C)=C3CCC(=O)O)=CC1=N2` [hemin] gave a Kd in data set [1] of 10 ± 2.5 µM. For `CC1=C(CCC(=O)O)c2cc3[nH]c(cc4nc(cc5[nH]c(cc1n2)c(CCC(=O)O)c5C)C(C)=C4CCC(=O)O)c(CCC(=O)O)c3C` [cPPIII, coproporphyrin III], in data set [1] (read-out: Kd), the Kd amounted to 17.9 ± 1.7 µM. In the case of `C=CC1=C(C)c2cc3[nH]c(cc4nc(cc5[nH]c(cc1n2)c(C)c5CCC(=O)O)C(CCC(=O)O)=C4C)c(C)c3C=C` [PPIX, protoporphyrin IX], in data set [1], the Kd worked out at 8.6 ± 0.6 µM.

B1: tryptophan-rich sensory protein (TspO) from Rhodobacter sphaeroides (natural protein, UniProt Q9RFC8 1-158, looked up)
chain: T1 sequence (Q9RFC8 1-158)
notes: also called rsTspO; TspO-His6; source: E. coli BL21(DE3), pET29, purified in DDM (NiNTA-agarose, gel filtration)
As usually defined, the stoichiometry N is the number of molecules, sites or subunits per partner or assembly. B1: in the data set “native gel or EMSA”, the “stoichiometry N” value was 2.

The values above are taken from publication PMC2911597, “Three-Dimensional Structure of TspO by Electron Cryomicroscopy of Helical Crystals” (Structure(London, England:1993), 2010).
